pIC50: −log10 of the molar value.

IC50 data for 13 compounds are collected here from ChEMBL document CHEMBL1156271, “Discovery and SAR of novel pyrazole-based thioethers as cathepsin S inhibitors: part 1” (Bioorg Med Chem Lett, 2010).

The target of test [1] is T1, Cathepsin S (Homo sapiens, UniProt P25774). The test is described as follows: Inhibition of human cathepsin S.
The target of test [2] is T1, Cathepsin S. The experiment in a line: Inhibition of cathepsin S in human JY cells assessed as inhibition of invariant chain degradation. Format: cell-based.

T1 sequence (P25774 whole entry): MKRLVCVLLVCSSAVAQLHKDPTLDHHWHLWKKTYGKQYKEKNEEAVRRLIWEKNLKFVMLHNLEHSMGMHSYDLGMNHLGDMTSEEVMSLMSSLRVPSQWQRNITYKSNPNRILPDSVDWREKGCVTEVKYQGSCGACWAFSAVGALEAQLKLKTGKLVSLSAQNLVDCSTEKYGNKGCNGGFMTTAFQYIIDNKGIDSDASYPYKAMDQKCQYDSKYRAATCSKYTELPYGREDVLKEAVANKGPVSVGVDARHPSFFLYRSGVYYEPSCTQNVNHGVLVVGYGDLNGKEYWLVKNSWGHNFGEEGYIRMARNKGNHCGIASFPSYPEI

For `CS(=O)(=O)N1CCc2c(c(-c3ccc(Cl)c(SCCO)c3)nn2CCCN2CCOCC2)C1`, in test [1], the pIC50 – broadly, the IC50 on a negative log10 scale, so that one unit is a factor of ten – is 6.02.

Take `CS(=O)(=O)N1CCc2c(c(-c3ccc(C(F)(F)F)c(SCCN4CCCCC4)c3)nn2CCCN2CCCC2)C1`: in test [2], the pIC50 was 6.33.

For the compound `CN1CCN(CCSc2cc(-c3nn(CCCN4CCC(N5CCCC5=O)CC4)c4c3CN(S(C)(=O)=O)CC4)ccc2C(F)(F)F)CC1`, the pIC50 in test [2] is 6.89.

Consider `CS(=O)(=O)N1CCc2c(c(-c3ccc(C(F)(F)F)c(SCCNCc4ccccc4)c3)nn2CCCN2CCC(N3CCCC3=O)CC2)C1`, for which the pIC50 in test [2] was 6.34.

Take `CS(=O)(=O)N1CCc2c(c(-c3ccc(C(F)(F)F)c(SCCN4CCCC4)c3)nn2CCCN2CCC(N3CCCC3=O)CC2)C1`: the pIC50 in test [2] is 7.10.

As to `CS(=O)(=O)N1CCc2c(c(-c3ccc(C(F)(F)F)c(SCCN4CCC(O)CC4)c3)nn2CCCN2CCC(N3CCCC3=O)CC2)C1`, in test [2], the negative-log IC50 (pIC50) is 6.46.

On to `CS(=O)(=O)N1CCc2c(c(-c3ccc(C(F)(F)F)c(SCCN4CCOCC4)c3)nn2CCCN2CCC(N3CCCC3=O)CC2)C1`, for which the pIC50 in test [2] is 6.17.

For `CS(=O)(=O)N1CCc2c(c(-c3ccc(C(F)(F)F)c(SCCN4CCC(c5ccccc5)CC4)c3)nn2CCCN2CCC(N3CCCC3=O)CC2)C1`, the pIC50 in test [2] is 6.02.

Take `CC(C)(C)C1CCN(CCSc2cc(-c3nn(CCCN4CCC(N5CCCC5=O)CC4)c4c3CN(S(C)(=O)=O)CC4)ccc2C(F)(F)F)CC1`: the pIC50 in test [2] was 6.48.

On to `CC1CCN(CCSc2cc(-c3nn(CCCN4CCC(N5CCCC5=O)CC4)c4c3CN(S(C)(=O)=O)CC4)ccc2C(F)(F)F)CC1`, for which, in test [2], the negative logarithm of the IC50 (pIC50) is 6.09.

As for `CS(=O)(=O)N1CCc2c(c(-c3ccc(C(F)(F)F)c(SCCN4CCC5CCCCC5C4)c3)nn2CCCN2CCC(N3CCCC3=O)CC2)C1` (centres undefined), the pIC50 in test [1] was 7.26; in test [2], 6.34.

As to `CS(=O)(=O)N1CCc2c(c(-c3ccc(C(F)(F)F)c(SCCN4CCCCC4)c3)nn2CCCN2CCOCC2)C1`, the pIC50 in test [2] was 5.45.

With `CS(=O)(=O)N1CCc2c(c(-c3ccc(C(F)(F)F)c(SCCN4CCCCC4)c3)nn2CCCN2CCC(N3CCCC3)CC2)C1`, in test [2], the pIC50 was 6.49.
